According to patent US12698141B2, “Methods for extracting and encapsulating phenolics from food waste, related compositions, and related articles” (BOARD OF TRUSTEES OF MICHIGAN STATE UNIVERSITY, priority 2019, dated 2026):

Experiment: Release of quercetin in PBS solution from electrospun PLLA scaffold (spectrophotometer)
Format: physicochemical
Details: all three samples (quercetin:PLLA 1:16, 1:8, 1:4)
Method: Materials and Methods: For fabrication of the scaffolds, an electrospinning apparatus consisting of a high voltage power supply (PCM series, Spellman, NY, USA) was used for charging the polymer solution, a grounded aluminum roto-translating drum (4 mm outer diameter and 13 cm in length) was used for collecting fibers, and a syringe pump (KDS-100, KD Scientific, Holliston, MA, USA) was used for controlling feed flow rate. Rotation was at 750 rpm and translation velocity at 1000 mm/min. The fluid was pushed out from the syringe with a flow rate of 1.1 mL/h, throughout a 0.25 mm diameter needle with a potential difference of 17 kV. All the samples were obtained using about 1.5 mL of initial solution. The polymer solution was prepared with Poly (L-lactide), PLLA, in 1,1,1,3,3,3-Hexafluoro-2-propanol (HFP) 20% (w/v). Three different volumes of quercetin dihydrate in ethanol (5.5 mg/mL) were added to obtain three different quercetin/polymer ratio: 1:4, 1:8, 1:16. […] The mechanical properties of the scaffolds were measured using uniaxial tensile test. The release of quercetin in PBS solution from the scaffold was measured using spectrophotometer at different times up to 75 days. Growth inhibition activity of quercetin against Escherichia coli and Saccharomyces cerevisiae was also assessed.

amount of quercetin released (after 75 days of incubation at 4° C.): 50%
amount of quercetin released (after 75 days of incubation at 20° C.): 50%
SMILES: O=c1c(O)c(-c2ccc(O)c(O)c2)oc2cc(O)cc(O)c12 [quercetin]
